Results from patent US12522576B2, “Polymorphs of D9-THC naphthoylester” (priority 2019, dated 2026).
Converted amounts (≈) assume the structure as drawn.

Columns and labels:
Gravimetric solubility = format: physicochemical; details: 20 °C, organic solvent or mixture, thermodynamic from solid, RT, read-out: Gravimetric Solubility at RT
Method: Additional solids or solvents were added to visual solubility samples with vials less than 100 mg/mL to produce slurries at 20 and 50° C. for the subsequent equilibrium solubility assessment. The slurries were stirred at 20 and 50° C. overnight, filtered through 0.2 μm syringe filters and evaporated to dryness under reduced pressure at ambient temperature. Gravimetric solubility was calculated by dividing the dry solids residue mass (mg) by the solvent mass (g). The mg/g solubility values were then converted to mg/mL using solvent density.
The solubility of Group D acetone and DMF solvates were assessed in the corresponding solvents.

[1] = format: physicochemical; details: for Time of conversion to Form C in the solid-state: ambient temperature
Method: Powder X-Ray Diffraction (PXRD). PXRD diffractograms were acquired on a PANalytical X'Pert Pro diffractometer using Ni-filtered Cu Ka (45 kV/40 mA) radiation and a step size of 0.03° 2θ and X'celerator™ RTMS (Real Time Multi-Strip) detector. Configuration on the incidental beam side: variable divergence slits (10 mm irradiated length), 0.04 rad Soller slits, fixed anti-scatter slit (0.50 o), and 10 mm beam mask. Configuration on the diffracted beam side: variable anti-scatter slit (10 mm observed length) and 0.04 rad Soller slit. Samples were mounted flat on zero-background Si wafers.
Group D solvates converted to Form C in the solid-state at different rates, depending on the solvent included. […] No phase-pure Group D was isolated from acetone-containing solvents, indicating the unstable nature of this solvate.

[2] = Competitive ripening (relative thermodynamic stability of non-solvated forms); details: Table 6 summary
[3] = Polymorph screen of Exo-impurity; format: physicochemical
[4] = D9 solubility in the liquors at isolation temperature; format: physicochemical; details: crystallisation liquors over suspended solid, organic solvent or mixture, thermodynamic from solid
Method: At the end of each experiment, suspensions were equilibrated at the isolation temperature (25 or 5° C.) for at least 18 hours and the solids and liquors separated by centrifugation at the isolation temperature. The Exo/D9/D8 ratio (Exo-D9-THC-naphthoylester impurity/D9-THC-naphthoylester/D8-THC-naphthoylester) was determined in both the isolated solids and the liquors, from which the % Exo-depletion in the isolated solids was calculated. Several solids were also isolated at elevated temperatures to assess the impact of the isolation temperature on Exo-impurity depletion.
In addition, the solubility of D9 in the liquors was determined in most of the explored solvents and used to estimate the yield.

[5] = Experiment No. 20, Nitromethane, seed Form E
[6] = Experiment No. 21, DMSO, seed Group D
[7] = Experiment No. 22, Acetone, seed Group D
[8] = Experiment No. 23, MeCN, seed Group D
[9] = Experiment No. 24, P-Xylene/MeOH (10:90), seed Form E

Question: Which results are given for `CCCCCc1cc(OC(=O)c2ccc3ccccc3c2)c2c(c1)OC(C)(C)[C@@H]1CCC(C)=C[C@@H]21` [DMF solvate of Group D]?
Answer: solubility (Gravimetric solubility; solvent DMF, Batch 8): 95 mg/mL; Time of conversion to Form C in the solid-state [1]: overnight

Question: Which “Time of conversion to Form C in the solid-state” value [1] does the source give for `CCCCCc1cc(OC(=O)c2ccc3ccccc3c2)c2c(c1)OC(C)(C)[C@@H]1CCC(C)=C[C@@H]21` [DMSO solvate] here?
Answer: The value was “within five days”.

Question: For `CCCCCc1cc(OC(=O)c2ccc3ccccc3c2)c2c(c1)OC(C)(C)[C@@H]1CCC(C)=C[C@@H]21` [Acetone solvate of Group D], which solubility (Gravimetric solubility; solvent Acetone, Batch 7) is on record?
Answer: The solubility was 98 mg/mL.

Question: And the Stability of solvate ([1]; no phase-pure Group D isolated from acetone-containing solvents)?
Answer: The Stability of solvate was “unstable”.

Question: Which results are given for `CCCCCc1cc(OC(=O)c2ccc3ccccc3c2)c2c(c1)OC(C)(C)[C@@H]1CCC(C)=C[C@@H]21` [Form F, (6aR,10aR)-6a,7,8,10a-tetrahydro-6,6,9-trimethyl-3-pentyl-6H-dibenzo[b,d]pyran-1-yl ester]?
Answer: Nature (thermodynamic stability of crystal form) [2]: Transient; Form conversion by PXRD ([1]; wet-cake after air-drying for five minutes at ambient): converted to Form E

Question: For `C=C1CC[C@@H]2[C@@H](C1)c1c(OC(=O)c3ccc4ccccc4c3)cc(CCCCC)cc1OC2(C)C` [Exo, (6aR,10aR)-6,6-dimethyl-9-methylene-3-pentyl-6a,7,8,9,10,10a-hexahydro-6H-benzo[c]chromen-1-yl 2-naphthoate], which “Form Isolated at 5° C. 6 D (Exo)” value [3, 5] is on record?
Answer: The value was “Input”.

Question: What about the “Form Isolated at RT 5 D (Exo)” value [3, 5] of the same compound?
Answer: Its value is “Input”.

Question: And the “Form Isolated at 5° C. 6 D (Exo)” value [3, 6]?
Answer: Its value is “Input”.

Question: And the “Form Isolated at RT 5 D (Exo)” value [3, 6]?
Answer: The value was “Input”.

Question: What about the “Form Isolated at 5° C. 6 D (Exo)” value [3, 7] of the same compound?
Answer: The value was “Input”.

Question: And the “Form Isolated at RT 5 D (Exo)” value [3, 7]?
Answer: Its value is “No”.

Question: And the “Form Isolated at 5° C. 6 D (Exo)” value [3, 8]?
Answer: Its value is “Input”.

Question: What about the “Form Isolated at RT 5 D (Exo)” value [3, 8] of the same compound?
Answer: The value was “Input”.

Question: What about the “Form Isolated at 5° C. 6 D (Exo)” value [3, 9] of the same compound?
Answer: Its value is “Input”.

Question: And the “Form Isolated at RT 5 D (Exo)” value [3, 9]?
Answer: Its value is “Input”.

Question: And the Polymorphism ([3]; seeded slurries at RT and 5° C.)?
Answer: Its Polymorphism is “No evidence of polymorphism”.

Question: For `CCCCCc1cc(OC(=O)c2ccc3ccccc3c2)c2c(c1)OC(C)(C)[C@@H]1CCC(C)=C[C@@H]21` [Form C, (6aR,10aR)-6a,7,8,10a-tetrahydro-6,6,9-trimethyl-3-pentyl-6H-dibenzo[b,d]pyran-1-yl ester], which “Nature (thermodynamic stability of crystal form)” value [2] is on record?
Answer: The value was “Metastable”.

Question: What about the solubility ([4]; 5 °C, batch 5, MeCN/MIBK (8:2), seed D, heat T 50, isolation T 5, SP 6, 20.0 mL/g) of the same compound?
Answer: The solubility was 21.6 mg/mL (≈ 46.1 mM).

Question: What about the solubility ([4]; 5 °C, batch 5, MeCN/MeOH (9:1), seed D/G, heat T 50, isolation T 5, SP 6, 30.0 mL/g) of the same compound?
Answer: Its solubility is 8.4 mg/mL (≈ 17.9 mM).

Question: And the solubility ([4]; 25 °C, batch 5, MeCN, seed D, heat T 50, isolation T 25, SP 5, 30.0 mL/g)?
Answer: Its solubility is 8.6 mg/mL (≈ 18.4 mM).

Question: And the solubility ([4]; 25 °C, batch 5, MeCN/MIBK (8:2), seed D, heat T 50, isolation T 25, SP 2, 3.2 mL/g)?
Answer: The solubility was 25.5 mg/mL (≈ 54.4 mM).

Question: And the solubility ([4]; 25 °C, batch 5, MeCN/MIBK (8:2), seed D, heat T 50, isolation T 25, SP 5, 20.0 mL/g)?
Answer: Its solubility is 22.3 mg/mL (≈ 47.6 mM).

Question: What about the solubility ([4]; 25 °C, batch 5, MeCN/MeOH (9:1), seed D/G, heat T 50, isolation T 25, SP 5, 30.0 mL/g) of the same compound?
Answer: The solubility was 8.7 mg/mL (≈ 18.6 mM).
